Reference: patent US6159959A, “Combined estrogen and antiestrogen therapy” (American Home Products Corporation, priority 1999, dated 2000)

Assays:
human estrogen receptor = molecular target: T1, human estrogen receptor (Homo sapiens, UniProt P03372); test: 2× VIT ERE Infection Assay (infection luciferase activity); type: cell-based; conditions: 24 h, read-out: Infection Luciferase Activity, 1 uM
T1 construct: expressed in transfected cells; host or cells: CHO (Chinese Hamster Ovary) cells, stably transfected
Protocol: 48 h prior to treatment the growth medium was replaced with DMEM lacking phenol red+10% dextran coated charcoal stripped FBS (treatment medium).
Reporter DNA (Promega plasmid pGL2 containing two tandem copies of the vitellogenin ERE in front of the minimal thymidine kinase promoter driving the luciferase gene) was combined with the B-galactosidase expression plasmid pCH110 (Pharmacia) and carrier DNA (pTZ18U) in the following ratio:
20 uL of this mixture was added to each well of cells and remained on the cells for 16 h. […] Each treatment condition was performed on 8 wells (n=8) which were incubated for 24 h prior to the luciferase assay.
After 24 h exposure to compounds, the media was removed and each well washed 2× with 125 uL of PBS lacking Mg^++ and Ca^++. After removing the PBS, 25 uL of Promega lysis buffer was added to each well and allowed to stand at room temperature for 15 min, followed by 15 min at -80° C. and 15 min at 37° C.
The luciferan substrate (Promega) was added in 100 uL aliquots to each well automatically by the luminometer and the light produced (relative light units) was read 10 seconds after addition.
To the remaining 5 uL of lysate 45 uL of PBS was added. Then 50 uL of Promega B-galactosidase 2× assay buffer was added, mixed well and incubated at 37° C. for 1 hour. A plate containing a standard curve (0.1 to 1.5 milliunits in triplicate) was set up for each experimental run. The plates were analyzed on a Molecular Devices spectrophotometric plate reader at 410 nm. The optical densities for the unknown were converted to milliunits of activity by mathematical extrapolation from the standard curve.
The luciferase data was generated as relative light units (RLUs) accumulated during a 10 second measurement and automatically transferred to a JMP (SAS Inc) file where background RLUs were subtracted. The B-galactosidase values were automatically imported into the file and these values were divided into the RLUs to normalize the data. The mean and standard deviations were determined from a n=8 for each treatment.

estrogen receptor = molecular target: T2, estrogen receptor (Homo sapiens, UniProt P03372); test: In vitro Estrogen Receptor Binding Assay (competition with [3H]-17β-estradiol); conditions: compared with indenoindole #6
T2 construct: expressed in transfected cells; host or cells: CHO cells overexpressing the receptor; cytosol (100,000 g supernatant)
T2 sequence (P03372 1-595): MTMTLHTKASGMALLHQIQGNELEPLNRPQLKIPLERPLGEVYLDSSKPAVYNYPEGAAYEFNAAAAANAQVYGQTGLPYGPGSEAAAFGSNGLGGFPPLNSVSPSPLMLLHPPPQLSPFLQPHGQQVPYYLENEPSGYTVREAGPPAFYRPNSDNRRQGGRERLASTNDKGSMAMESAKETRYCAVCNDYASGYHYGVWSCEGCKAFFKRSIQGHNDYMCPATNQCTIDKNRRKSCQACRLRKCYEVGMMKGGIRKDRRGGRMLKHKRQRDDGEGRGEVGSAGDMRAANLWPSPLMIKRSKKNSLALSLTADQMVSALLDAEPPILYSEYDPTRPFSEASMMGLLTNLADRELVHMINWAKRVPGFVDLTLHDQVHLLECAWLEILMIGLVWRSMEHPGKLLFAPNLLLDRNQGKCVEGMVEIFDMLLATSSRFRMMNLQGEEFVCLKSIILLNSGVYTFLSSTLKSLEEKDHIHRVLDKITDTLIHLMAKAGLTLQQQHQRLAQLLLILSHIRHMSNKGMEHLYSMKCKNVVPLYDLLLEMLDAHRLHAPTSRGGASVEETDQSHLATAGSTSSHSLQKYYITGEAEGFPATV
Protocol: CHO cells overexpressing the estrogen receptor were grown in 150 mm^2 dishes in DMEM+10% dextran coated charcoal, stripped fetal bovine serum. The plates were washed twice with PBS and once with 10 mM Tris-HCl, pH 7.4, 1 mM EDTA. Cells were harvested by scraping the surface and then the cell suspension was placed on ice. Cells were disrupted with a hand-held motorized tissue grinder using two, 10-second bursts. The crude preparation was centrifuged at 12,000 g for 20 minutes followed by a 60 minute spin at 100,000 g to produce a ribosome free cytosol. The cytosol was then frozen and stored at -80° C. […]
The competition assay was performed in a 96-well plate (polystyrene*) which binds <2.0% of the total input [^3 H]-17β-estradiol and each data point was gathered in triplicate. […] Samples were counted to 2% or 10 minutes, whichever occurs first. […] 17βestradiol, wells containing radioactivity and cytosol, but not processed with charcoal were included to quantitate amounts of available isotope. Also, wells containing radioactivity but no cytosol were processed with charcoal to estimate unremovable DPM of [^3 H] […]
Counts per minute (CPM) of radioactivity were automatically converted to disintegrated per minute (DPM) by the Beckman LS 7500 Scintillation Counter using a set of quenched standards to generate a H# for each sample. […]

ovariectomized rat = conditions: cited from earlier work
bone = conditions: in humans; cited from earlier work
uterus = conditions: in vivo; cited from earlier work

| SMILES | activation at 1 µM (human estrogen receptor) [%] | bind to the ER receptor (comparison in words) (estrogen receptor) | further results |
| --- | --- | --- | --- |
| COc1ccc2c(c1)Cc1c-2n(Cc2ccc(OCCN3CCCCC3)cc2)c2ccc(O)cc12 [Cmpd. 6, 2-Methoxy-5-[4-(2-piperidin-1-yl-ethoxy)-benzyl]-5,10-dihydro-indeno[1,2-b]indol-8ol] | -2 |  |  |
| COc1ccc2c(c1)CCc1c-2n(Cc2ccc(OCCN3CCCCC3)cc2)c2ccc(O)cc12 [Cmpd. 21, 3-Methoxy-11-[4-(2-piperidin-1-yl-ethoxy)-benzyl]-5,11-dihydro-6H-benzo[a]carbazol-8-ol] | -7 | bind better to the ER receptor than the indenoindole #6 |  |
| COc1ccc2c(c1)CCc1c-2n(Cc2ccc(OCCN3CCCCCC3)cc2)c2ccc(O)cc12 [Cmpd. 22, 11-[4-(2-Azepan-1-yl-ethoxy)-benzyl]-3-methoxy-5,11-dihydro-6H-benzo[a]carbazol-8-ol] | 1 | bind better to the ER receptor than the indenoindole #6 |  |
| O=C(c1ccc(OCCN2CCCCC2)cc1)c1c(-c2ccc(O)cc2)sc2cc(O)ccc12 [Raloxifene] |  |  | ability to spare bone (ovariectomized rat): maintaining the ability to spare bone; stimulation of uterine growth (ovariectomized rat; compared with Tamoxifen): stimulate uterine growth in the ovariectomized rat to a lesser extent than Tamoxifen |
| CC/C(=C(\c1ccccc1)c1ccc(OCCN(C)C)cc1)c1ccccc1 [Tamoxifen] |  |  | effect on the bone (bone): estrogen agonist-like effect on the bone; agonism in the uterus (uterus): partial agonist in the uterus |
